Values joined by “and” are separate entries in the source; they are usually repeats but may differ in a detail not shown here. Identical values can stand only once.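 Five concentrations, 48 hours, 96-well plates. At the GI50, growth is halved. TGI: total growth inhibition.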
What was measured:
Assay in all cases: DTP human tumour cell line panel, 48 h
SNB-19 CNS = system: SNB-19 CNS
OVCAR-8 ovarian = system: OVCAR-8 ovarian
SK-MEL-2 melanoma = system: SK-MEL-2 melanoma
SN12C renal = system: SN12C renal
OVCAR-5 ovarian = system: OVCAR-5 ovarian
COLO 205 colon = system: COLO 205 colon
SF-539 CNS = system: SF-539 CNS
EKVX NSCLC = system: EKVX NSCLC
NCI/ADR-RES ovarian = system: NCI/ADR-RES ovarian
U251 CNS = system: U251 CNS

Compound	GI50 (SNB-19 CNS)	TGI (SNB-19 CNS)	GI50 (OVCAR-8 ovarian)	TGI (OVCAR-8 ovarian)	GI50 (SK-MEL-2 melanoma)	TGI (SK-MEL-2 melanoma)	GI50 (SN12C renal)	TGI (SN12C renal)	GI50 (OVCAR-5 ovarian)	TGI (OVCAR-5 ovarian)	GI50 (COLO 205 colon)	TGI (COLO 205 colon)	GI50 (SF-539 CNS)	TGI (SF-539 CNS)	GI50 (EKVX NSCLC) [µM]	TGI (EKVX NSCLC)	GI50 (NCI/ADR-RES ovarian) [µM]	TGI (NCI/ADR-RES ovarian) [µM]	GI50 (U251 CNS)	TGI (U251 CNS)
CC(=O)Nc1ccc(-c2csc(Nc3cccc(-c4csc(-c5ccccc5)n4)c3)n2)cc1	49.7 µM	> 50 µM	15.6 µM	> 50 µM	16.4 µM	> 50 µM	8.2 µM	27.6 µM	> 50 µM	> 50 µM	24.2 µM	> 50 µM	23.3 µM	> 50 µM	20.2	> 50 µM	17.5	> 50	10.4 µM	> 50 µM
O=C1CCSC(=S)N1c1ccc(Br)c(Cl)c1	–	57.6 µM	–	92.1 µM	–	58.2 µM	–	> 100 µM	–	> 100 µM	–	41.2 µM	–	> 100 µM	–	> 100 µM	–	> 100	–	63.7 µM
COc1cnc2c(c1)C(=O)c1c-2n(CCCNCCN2CCOCC2)c(=O)c2cc([N+](=O)[O-])ccc12	0.11 µM	5.2 µM	0.174 µM	10.2 µM	1.59 µM	14.4 µM	0.0795 µM	4.59 µM	0.448 µM	3.87 µM	0.297 µM	3.07 µM	0.311 µM	1.32 µM	0.446	3.5 µM	0.125	1.45	0.0783 µM	1.1 µM
NC(=O)c1sc(-n2cnc3ccc(C(F)(F)F)cc32)cc1OCc1ccccc1Br	2.79 µM	> 25 µM	1.78 µM	> 25 µM	1.31 µM	11.3 µM	3.81 µM	> 25 µM	1.46 µM	> 19.2 µM	0.802 µM	3.44 µM	1.37 µM	> 17 µM	> 21.3	> 25 µM	0.764	> 25	1.61 µM	> 25 µM
CCOC(=O)Cn1c(-c2nonc2NC(=O)c2ccccc2F)nc2ccccc21	5.58 µM	> 100 µM	0.739 µM	> 60.1 µM	41.3 µM	> 85.5 µM	26.2 µM	> 100 µM	26.3 µM	> 100 µM	> 35.6 µM	> 100 µM	1.67 µM	> 100 µM	28	> 100 µM	4.74	> 100	0.41 µM	25.8 µM
Cc1ccc2nc3c(n2c1)C(=O)C(=O)c1ccccc1-3	0.565 µM	1.58 µM	0.238 µM	0.655 µM	0.293 µM	0.849 µM	0.153 µM	0.303 µM	0.202 µM	0.391 µM	1.91 µM	3.76 µM	0.164 µM	0.326 µM	0.654	1.65 µM	0.348	2.51	0.176 µM	0.419 µM
CCCCCCCCCCC[C@@H](C[C@H]1OC(=O)[C@H]1CCCCCC)OC(=O)[C@@H](CC(C)C)NC=O	5.02 µM	25.4 µM	2.5 µM	15.7 µM	6.04 µM	24.8 µM	2.42 µM	12.2 µM	21.7 µM	> 100 µM	11.6 µM	32.1 µM	5.48 µM	31 µM	27.4	> 100 µM	2.86	15.2	2.83 µM	17.2 µM
O=C(Nc1ccc(Oc2ccc(NC(=O)Nc3ccc([N+](=O)[O-])cc3)cc2)cc1)Nc1ccc([N+](=O)[O-])cc1	3.34 µM	> 100 µM	3.17 µM	> 100 µM	2.03 µM	4.29 µM	2.16 µM	> 84.7 µM	3.59 µM	> 100 µM	1.63 µM	3.22 µM	3.07 µM	20.6 µM	2.32	> 30.9 µM	3.88	> 91.3	2.16 µM	12.5 µM
c1ccc2cc(C[n+]3ccn(Cc4ccc5ccccc5n4)c3)ccc2c1	0.338 µM and 3.05 µM	11 µM and 13.2 µM	0.754 µM and 3.72 µM	10.5 µM and 15 µM	0.381 µM and 2.44 µM	1.8 µM and 8.98 µM	0.347 µM and 2.82 µM	6.15 µM and 11 µM	0.588 µM and 3.58 µM	9.52 µM and 16.7 µM	0.239 µM and 1.72 µM	0.738 µM and 5.07 µM	0.421 µM and 2.72 µM	11.4 µM and 13.8 µM	–	7.34 µM and 31.4 µM	> 100	> 100	0.406 µM and 3.19 µM	12.4 µM and 15.2 µM
O=C(CCN1CCCC1)Nc1ccc2c(NCCc3ccccc3)c3ccccc3nc2c1	0.385 µM	1.61 µM	0.532 µM	2.72 µM	0.463 µM	1.63 µM	0.358 µM	1.45 µM	0.506 µM	2.13 µM	0.297 µM	1.19 µM	0.435 µM	1.55 µM	0.463	2.16 µM	12	> 62.9	0.329 µM	1.55 µM
O=C(NO)c1ccc(Cn2c(=O)n(-c3ccccc3)c(=O)c3ccccc32)cc1	1.85 µM	> 100 µM	–	–	1.22 µM	3.34 µM	–	–	1.08 µM	5.28 µM	0.356 µM	1.39 µM	0.693 µM	2.86 µM	1.11	2.69 µM	2.67	39.5	0.86 µM	2.3 µM
CC[C@H]1CN(C)[C@H]2Cc3c([nH]c4ccccc34)C(=O)C[C@H]1C2C(=O)OC (stereo partly drawn)	–	> 100 µM	–	> 100 µM	–	> 100 µM	–	> 100 µM	–	> 100 µM	–	> 100 µM	–	> 100 µM	–	> 100 µM	–	> 100	–	> 100 µM
C=C(C)[C@@H]1CC[C@]2(C(=O)O)CC[C@]3(C)[C@H](CC[C@@H]4[C@@]5(C)C/C(=C/c6cccc(I)c6)C(=O)C(C)(C)[C@@H]5CC[C@]43C)[C@@H]12	3.28 µM	17.5 µM	2.87 µM	14.3 µM	2.4 µM	6.94 µM	2.93 µM	11.7 µM	3.19 µM	14.7 µM	–	–	2.17 µM	5.52 µM	2.65	12.7 µM	3.22	14.2	1.71 µM	3.91 µM

Reference: PubChem BioAssay (NCI)
